Reference: ChEMBL document CHEMBL3120141, “Discovery of (1R,6S)-5-[4-(1-cyclobutyl-piperidin-4-yloxy)-phenyl]-3,4-diaza-bicyclo[4.1.0]hept-4-en-2-one (R,S-4a): histamine H(3) receptor inverse agonist demonstrating potent cognitive enhancing and wake promoting activity” (Bioorg Med Chem Lett, 2014)

Experiments:
Histamine H3 receptor [1] = molecular target: Histamine H3 receptor (Rattus norvegicus, UniProt Q9QYN8); assay: Displacement of [3H]NAMH from rat histamine H3 receptor transfected in CHO cells; assay type: cell-based
Chain of Histamine H3 receptor (Rattus norvegicus, UniProt Q9QYN8) (Q9QYN8 whole entry): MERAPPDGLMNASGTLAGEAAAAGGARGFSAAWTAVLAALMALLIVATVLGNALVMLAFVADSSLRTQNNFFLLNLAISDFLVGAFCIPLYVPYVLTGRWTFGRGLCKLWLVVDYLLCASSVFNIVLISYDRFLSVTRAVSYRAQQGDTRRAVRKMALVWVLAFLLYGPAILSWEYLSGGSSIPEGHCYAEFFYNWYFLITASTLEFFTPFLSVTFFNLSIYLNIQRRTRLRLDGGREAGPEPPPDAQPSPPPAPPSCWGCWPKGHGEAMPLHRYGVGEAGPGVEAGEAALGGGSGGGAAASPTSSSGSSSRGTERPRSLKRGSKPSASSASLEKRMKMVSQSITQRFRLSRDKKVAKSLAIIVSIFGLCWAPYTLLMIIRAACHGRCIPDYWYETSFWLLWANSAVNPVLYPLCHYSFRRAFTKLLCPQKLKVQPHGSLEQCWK

Homo sapiens [2] = species on record: Homo sapiens; assay: Selectivity ratio for human histamine H3 receptor over human histamine H4 receptor
Homo sapiens [3] = species on record: Homo sapiens; assay: Selectivity ratio for human histamine H3 receptor over human histamine H2 receptor
Histamine H3 receptor [4] = molecular target: Histamine H3 receptor (Homo sapiens, UniProt Q9Y5N1); assay: Displacement of [3H]NAMH from human histamine H3 receptor transfected in CHO cells; assay type: cell-based
Chain of Histamine H3 receptor (Homo sapiens, UniProt Q9Y5N1) (Q9Y5N1 whole entry): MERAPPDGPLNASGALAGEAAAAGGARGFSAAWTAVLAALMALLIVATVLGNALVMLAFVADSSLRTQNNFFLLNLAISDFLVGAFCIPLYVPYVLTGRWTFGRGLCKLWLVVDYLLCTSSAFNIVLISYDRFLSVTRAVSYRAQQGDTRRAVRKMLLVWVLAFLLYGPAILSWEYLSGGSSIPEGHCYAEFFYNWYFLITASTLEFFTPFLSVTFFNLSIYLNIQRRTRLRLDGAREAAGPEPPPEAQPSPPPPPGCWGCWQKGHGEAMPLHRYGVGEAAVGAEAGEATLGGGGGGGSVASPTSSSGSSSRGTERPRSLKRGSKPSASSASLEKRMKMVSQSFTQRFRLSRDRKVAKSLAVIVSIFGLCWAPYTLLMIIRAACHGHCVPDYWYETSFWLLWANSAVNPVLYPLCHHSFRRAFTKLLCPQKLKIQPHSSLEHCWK

Homo sapiens [5] = species on record: Homo sapiens; assay: Selectivity ratio for human histamine H3 receptor over human histamine H1 receptor
[6] = Metabolic stability in mouse liver microsomes; assay type: ADME, Microsome
Liver microsome [7] = assay: Metabolic stability in dog liver microsomes; assay type: ADME, Canis lupus familiaris
Liver microsome [8] = assay: Metabolic stability in human liver microsomes; assay type: ADME
[9] = Oral bioavailability in rat; assay type: ADME, organism-based; conditions: in vivo
Liver microsome [10] = assay: Metabolic stability in rat liver microsomes; assay type: ADME

Row | Ki (Histamine H3 receptor [1]) | Selectivity ratio (Homo sapiens [2]) | Selectivity ratio (Homo sapiens [3]) | Ki (Histamine H3 receptor [4]) | Selectivity ratio (Homo sapiens [5]) | Stability [6] | Stability (Liver microsome [7]) | Stability (Liver microsome [8]) | bioavailability [9] | Stability (Liver microsome [10]) | Compound
1 | 17 nM | > 1000 | > 1000 | 4 nM | > 1000 |  |  |  |  |  | CC(C)N1CCC(Oc2ccc(C3=NN(C)C(=O)C4CC34)cc2)CC1 (racemic)
2 | 6.9 nM | > 1000 | > 1000 | 4 nM | > 1000 | Stable | Stable | Stable | 6% | Stable | CN1N=C(c2ccc(OC3CCN(C4CCC4)CC3)cc2)C2CC2C1=O (racemic)
3 | 8 nM | > 1000 | > 1000 | 4.5 nM | > 1000 |  |  |  |  |  | CCN1N=C(c2ccc(OC3CCN(C4CCC4)CC3)cc2)C2CC2C1=O (racemic)
